Where two headings read alike, the source gives them in different places.
Legend:
[1] = Stability in DMEM (UV-vis); assay type: physicochemical; details: DMEM without phenol red; dark; 48 h
Experimental: The stability of the complexes in biological media was studied by UV–vis spectroscopy. Complexes 1 and 2 were dissolved in DMSO and complexes 3–8 were dissolved in MeOH at 1.0 × 10^–3 M and then diluted to 1.0 × 10^–5 M with Dulbecco’s modified Eagle’s medium (DMEM) without phenol red (Corning) (the final concentration of DMSO or MeOH was 1%). The solutions were studied in the dark and under blue light irradiation (470 nm).

[2] = Reactivity of 1w with n-Bu4NCl (1H NMR); assay type: physicochemical; details: 100 equivalents of n‐Bu4NCl
Experimental: A solution of 1w (3.0 mM) with 100 equiv of n-Bu4NCl (300 mM) in a DMSO-d6/D2O (9:1, v/v) mixture was monitored by NMR spectroscopy at room temperature and at 60 °C.

[3] = tested on: A549 cells; assay: Cell death mechanism (Annexin V-FITC / propidium iodide); assay type: cell-based, human; details: photoactivated
Experimental: The cell death mechanism was analyzed with the Vybrant Apoptosis Assay Kit (Molecular Probes). A549 cells seeded in 12-well plates at a density of 1 × 10^5 cells per well were treated with complex 6 at the corresponding IC50,light × 5 under photoactivation conditions. Cisplatin at 50 μM was used as positive control. 4 and 20 h after the irradiation, cells were collected by trypsinization and immediately stained with Annexin V-FITC and propidium iodide according to the manufacturer’s instructions. The median fluorescence of 10,000 cells of each sample was analyzed by flow cytometry. Annexin-FITC staining was detected at a wavelength of 520 nm (FL1) and propidium iodide was detected at 617 nm (FL2).

[4] = tested on: multicellular A549 tumor spheroids; assay: Cytotoxic activity against spheroids (CellTiter-Glo 3D); assay type: cell-based, human; details: for IC50: 48 h
Experimental: For the evaluation of the cytotoxic activity of complex 6 in 3D cultures, 96-well plates coated with a thin solidified layer of Geltrex reduced growth factor basement membrane matrix (Gibco) were used to form A549 spheroids. A density of 1500 single cells per well was seeded in culture medium supplemented with 2% Geltrex. Treatments with concentrations of complex 6 ranging from 5 to 0.001 μM in culture medium containing 2% Geltrex were performed at day 6. The cells were then kept in the dark or photoactivated with blue light, as described. After 48 h, the treatments were removed, the cells were washed with PBS and cell viability was determined by adding 100 μL of medium and 100 μL of CellTiter-Glo 3D reagent (Promega) to each well. Following the manufacturer’s protocol, the cells were kept in agitation for 5 min and incubated for 25 min at room temperature. Then, the luminescence was determined using a Multiscan Plate Reader (Synergy 4, Biotek, Winooski). The IC50 values were calculated with the Gen5 Data Analysis Software (BioTeck) for two independent experiments, each with duplicate samples. Nontreated cells were used as control.

[5] = tested on: A549 cells; assay: Cell internalization (iridium content by ICP-MS); assay type: cell-based, human; details: for iridium content in cells: 10 μM, 1 h
Experimental: To assess the cell internalization mechanism, 8 × 10^6 A549 cells were incubated with complex 6 at 10 μM for 1 h in the dark under different conditions: (i) at 37 °C (positive control cells), (ii) at 37 °C in the presence of CCCP (50 μM) (to inhibit mitochondrial ATP production) or (iii) at 4 °C (to inhibit cellular metabolism). The cells incubated with medium alone were included as negative control. Then, the cells were washed twice with PBS, detached with trypsin, and centrifuged to obtain the whole cell pellet. […] The iridium amount in the samples was then determined by inductively coupled plasma mass spectrometry (ICP-MS) analysis. To this end, the cell pellets were dissolved in 400 μL of 69% v/v nitric acid (PanReac Applichem) and heated in a water bath at 100 °C for 18 h. Samples were then allowed to cool and diluted with Milli-Q water to a final volume of 10 mL. […] Iridium content was measured on an ICP-MS Agilent 7500c instrument at the Serveis Tècnics de Recerca, Universitat de Girona. The solvent used for all ICP-MS experiments was Milli-Q water with 2% superpure grade HNO3. The iridium standard (high purity standards, 1000 μg/mL ± 2 μg/mL in 5% hydrochloric acid in low TOC water (<50 ppb)) was diluted with 2% HNO3 to 400 ppb. Iridium standards were freshly prepared in Milli-Q water with 2% HNO3 before each experiment. The concentrations used for the calibration curve were 0, 1, 2, 5, 10, and 20 ppb. The isotope detected was 193Ir and readings were done in triplicate. Rhodium was added as an internal standard at a concentration of 10 ppb to all samples. All of the experiments were performed by duplicate.

## Cc1c(C)c(C)[c-](C)c1C.[Cl][Ir]1[c]2cccc3c4nc5ccccc5nc4c4ccc[n+]1c4c23 [complex 1, [(η^5-C5Me5)IrCl(pbpz)]]
[1]
  stability in DMEM (UV–vis changes): minor change
[2]; 60 °C, 15 minutes
  chloride complex 1 formed back from 1w: approximately 15%
[2]; room temperature, 4 days
  chloride complex 1 formed back from 1w: 2%

## Cc1c(C)c(C)[c-](C)c1C.F[B-](F)(F)F.c1ccc2cc3nc4c5ccc[n+]6c5c5[c](cccc5c4nc3cc2c1)[Ir]6[n+]1ccn(CCN2CCCCC2)c1 [complex 6, [(η^5-C5Me5) Ir(Imepip)(pbpn)]BF4]
[3]; IC50,light × 5, 4 h
  cells in early apoptosis (AN+; IP−), lower right quadrant: 1.7%
  cells in late apoptosis (AN+; IP+), upper right quadrant: 15.8%
  cells in necrosis (AN–; IP+), upper left quadrant: 6.4%
[3]; IC50,light × 5, 20 h
  cells in late apoptosis (AN+; IP+), upper right quadrant: 43.2%
  cells in necrosis (AN–; IP+), upper left quadrant: 10.4%
[4]; blue light photoactivation, read-out: IC50,light
  IC50: 5 ± 1 nM
[4]; dark, read-out: IC50,dark
  IC50: 1200 ± 200 nM
[4]; blue light
  PI: 240
[5]; 4 °C
  iridium content in cells: 18.0 ± 3 ng/10^6 cells
[5]; 37 °C, no inhibition
  iridium content in cells: 87.6 ± 4 ng/10^6 cells
[5]; CCCP pretreatment
  iridium content in cells: 17.6 ± 2 ng/10^6 cells
[5]; at 4 °C or with CCCP pretreatment
  reduction of iridium content vs 37 °C: approximately 80%
